Source: publication PMC9250534, “Synthesis and direct assay of large macrocycle diversities by combinatorial late-stage modification at picomole scale” (Nature Communications, 2022)

Molecular target: MDM2 (Homo sapiens, UniProt Q00987)
Assay: MDM2 binding screen of Libraries 3 and 4: displacement of fluorescent probe F-M8 at 750 nM macrocycle
Details: Panel b, Library 3: 63 scaffolds combinatorially acylated with 15 carboxylic acids at 30 picomole scale; displacement of fluorescent peptide probe; macrocycle 750 nM
Procedure, shortened: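 Cyclic peptide scaffolds were acylated in DMSO with carboxylic acids (20 equiv.), HBTU and DABCO for 6 h at room temperature. Reactions were quenched overnight in 100 mM Tris-Cl pH 7.4, 0.01% Tween20. The fluorescein conjugate was also competed with nutlin-3a.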

Chain of MDM2 (Q00987 whole entry): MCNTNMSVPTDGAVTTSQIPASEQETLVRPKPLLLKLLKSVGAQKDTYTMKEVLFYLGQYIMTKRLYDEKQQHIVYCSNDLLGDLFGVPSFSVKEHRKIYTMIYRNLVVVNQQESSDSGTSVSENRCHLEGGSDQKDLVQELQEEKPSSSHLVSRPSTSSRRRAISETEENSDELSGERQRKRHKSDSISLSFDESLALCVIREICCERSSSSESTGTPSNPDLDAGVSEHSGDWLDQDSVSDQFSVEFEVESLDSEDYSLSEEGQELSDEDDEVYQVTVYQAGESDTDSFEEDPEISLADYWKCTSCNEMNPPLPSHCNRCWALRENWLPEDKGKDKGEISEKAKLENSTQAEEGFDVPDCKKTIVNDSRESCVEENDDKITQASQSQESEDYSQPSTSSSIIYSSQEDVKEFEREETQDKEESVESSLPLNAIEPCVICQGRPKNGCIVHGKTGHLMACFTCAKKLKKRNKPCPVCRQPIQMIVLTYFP

fraction of fluorescent probe displaced	SMILES
-0.012	O=C(NC[C@@H]1NC(=O)[C@@H]2CN(CCO2)C(=O)CCSSCCNC(=O)[C@@H](Cc2c[nH]c3ccccc23)NC1=O)c1ccc(Cl)cc1 [X-Cop-Dap-D-Trp + Acid 25]
0.028	O=C(/C=C/c1ccc2ccccc2c1)NC[C@@H]1NC(=O)[C@@H]2CN(CCO2)C(=O)CCSSCCNC(=O)[C@@H](Cc2c[nH]c3ccccc23)NC1=O [X-Cop-Dap-D-Trp + Acid 112]
0.021	O=C(CCS(=O)(=O)c1ccccc1)NC[C@@H]1NC(=O)[C@@H]2CN(CCO2)C(=O)CCSSCCNC(=O)[C@@H](Cc2c[nH]c3ccccc23)NC1=O [X-Cop-Dap-D-Trp + Acid 114]
0.008	O=C(NC[C@@H]1NC(=O)[C@@H]2CN(CCO2)C(=O)CCSSCCNC(=O)[C@@H](Cc2c[nH]c3ccccc23)NC1=O)C1COc2ccccc2O1 (stereo partly drawn) [X-Cop-Dap-D-Trp + Acid 115]
0.00133	Cn1cc(C[C@@H]2NC(=O)[C@H](CNC(=O)c3ccc(Cl)s3)NC(=O)[C@@H]3CN(CCO3)C(=O)CCSSCCNC2=O)c2ccccc21 [X-Cop-Dap-Me-Trp + Acid 14]
0.015	Cn1cc(C[C@@H]2NC(=O)[C@H](CNC(=O)c3ccc(Cl)cc3)NC(=O)[C@@H]3CN(CCO3)C(=O)CCSSCCNC2=O)c2ccccc21 [X-Cop-Dap-Me-Trp + Acid 25]
0.015	Cn1cc(C[C@@H]2NC(=O)[C@H](CNC(=O)C3COc4ccccc4O3)NC(=O)[C@@H]3CN(CCO3)C(=O)CCSSCCNC2=O)c2ccccc21 (stereo partly drawn) [X-Cop-Dap-Me-Trp + Acid 115]
0.028	CN1C(=O)[C@H](CNC(=O)c2ccc(Cl)s2)NC(=O)[C@@H]2CN(CCO2)C(=O)CCSSCCNC(=O)[C@@H]1Cc1c[nH]c2ccccc12 [X-Cop-Dap-NMe-Trp + Acid 14]
-0.00533	CN1C(=O)[C@H](CNC(=O)c2ccc(Cl)cc2)NC(=O)[C@@H]2CN(CCO2)C(=O)CCSSCCNC(=O)[C@@H]1Cc1c[nH]c2ccccc12 [X-Cop-Dap-NMe-Trp + Acid 25]
0.018	CN1C(=O)C(CNC(=O)C2CC2c2ccccc2)NC(=O)C2CN(CCO2)C(=O)CCSSCCNC(=O)C1Cc1c[nH]c2ccccc12 (stereo not drawn) [X-Cop-Dap-NMe-Trp + Acid 105]
0.011	CN1C(=O)C(CNC(=O)c2ccc3ccccc3c2)NC(=O)C2CN(CCO2)C(=O)CCSSCCNC(=O)C1Cc1c[nH]c2ccccc12 (stereo not drawn) [X-Cop-Dap-NMe-Trp + Acid 107]
0.041	O=C(NCC1NC(=O)C2CN(CCO2)C(=O)CCSSCCNC(=O)C(Cc2c[nH]c3ccccc23)NC1=O)c1ccc(Cl)cc1 (stereo not drawn) [X-Cop-Dap-Trp + Acid 25]
0.108	O=C(NC[C@@H]1NC(=O)[C@@H]2CN(CCO2)C(=O)CCSSCCNC(=O)[C@H](Cc2c[nH]c3ccccc23)NC1=O)c1ccc2ccccc2c1 [X-Cop-Dap-Trp + Acid 107]
-0.012	O=C(/C=C/c1ccc(OCc2ccccc2)cc1)NC[C@@H]1NC(=O)[C@@H]2CN(CCO2)C(=O)CCSSCCNC(=O)[C@H](Cc2c[nH]c3ccccc23)NC1=O [X-Cop-Dap-Trp + Acid 110]
0.048	O=C(NC[C@@H]1NC(=O)[C@@H]2CN(CCO2)C(=O)CCSSCCNC(=O)[C@H](Cc2c[nH]c3ccccc23)NC1=O)c1cccc(Oc2ccccc2)c1 [X-Cop-Dap-Trp + Acid 111]
0.168	O=C(/C=C/c1ccc2ccccc2c1)NC[C@@H]1NC(=O)[C@@H]2CN(CCO2)C(=O)CCSSCCNC(=O)[C@H](Cc2c[nH]c3ccccc23)NC1=O [X-Cop-Dap-Trp + Acid 112]
-0.00533	CC(Oc1cccc(Cl)c1)C(=O)NC[C@@H]1NC(=O)[C@@H]2CN(CCO2)C(=O)CCSSCCNC(=O)[C@H](Cc2c[nH]c3ccccc23)NC1=O (stereo partly drawn) [X-Cop-Dap-Trp + Acid 113]
-0.00533	O=C(NC[C@@H]1NC(=O)[C@@H]2CN(CCO2)C(=O)CCSSCCNC(=O)[C@H](Cc2c[nH]c3ccccc23)NC1=O)C1COc2ccccc2O1 (stereo partly drawn) [X-Cop-Dap-Trp + Acid 115]
-0.025	O=C1CN(CCNC(=O)c2ccc(Cl)s2)C(=O)[C@@H]2CN(CCO2)C(=O)CCSSCCNC(=O)[C@H](Cc2cccc3ccccc23)N1 [X-Cop-N-Aeg-1-NaI + Acid 14]

fraction of fluorescent probe displaced	SMILES
0.008	O=C1CN(CCNC(=O)c2ccc(Cl)cc2)C(=O)C2CN(CCO2)C(=O)CCSSCCNC(=O)C(Cc2cccc3ccccc23)N1 (centres unmarked) [X-Cop-N-Aeg-1-NaI + Acid 25]
0.048	O=C(C=Cc1ccc(Cl)cc1)NCCN1CC(=O)NC(Cc2cccc3ccccc23)C(=O)NCCSSCCC(=O)N2CCOC(C2)C1=O (centres unmarked) [X-Cop-N-Aeg-1-NaI + Acid 108]
0.035	O=C(/C=C/c1ccc(OCc2ccccc2)cc1)NCCN1CC(=O)N[C@@H](Cc2cccc3ccccc23)C(=O)NCCSSCCC(=O)N2CCO[C@@H](C2)C1=O [X-Cop-N-Aeg-1-NaI + Acid 110]
-0.00533	O=C1CN(CCNC(=O)c2cccc(Oc3ccccc3)c2)C(=O)[C@@H]2CN(CCO2)C(=O)CCSSCCNC(=O)[C@H](Cc2cccc3ccccc23)N1 [X-Cop-N-Aeg-1-NaI + Acid 111]
0.008	CC(Oc1cccc(Cl)c1)C(=O)NCCN1CC(=O)N[C@@H](Cc2cccc3ccccc23)C(=O)NCCSSCCC(=O)N2CCO[C@@H](C2)C1=O (some centres unmarked) [X-Cop-N-Aeg-1-NaI + Acid 113]
0.015	O=C(CCS(=O)(=O)c1ccccc1)NCCN1CC(=O)NC(Cc2cccc3ccccc23)C(=O)NCCSSCCC(=O)N2CCOC(C2)C1=O (centres unmarked) [X-Cop-N-Aeg-1-NaI + Acid 114]
-0.019	O=C1CN(CCNC(=O)c2ccc(Cl)s2)C(=O)C2CN(CCO2)C(=O)CCSSCCNC(=O)C(Cc2ccc3ccccc3c2)N1 (centres unmarked) [X-Cop-N-Aeg-2-Nal + Acid 14]
0.00133	O=C1CN(CCNC(=O)c2ccc(Cl)cc2)C(=O)[C@@H]2CN(CCO2)C(=O)CCSSCCNC(=O)[C@H](Cc2ccc3ccccc3c2)N1 [X-Cop-N-Aeg-2-Nal + Acid 25]
-0.015	O=C1CN(CCNC(=O)C2CC2c2ccccc2)C(=O)C2CN(CCO2)C(=O)CCSSCCNC(=O)C(Cc2ccc3ccccc3c2)N1 (centres unmarked) [X-Cop-N-Aeg-2-Nal + Acid 105]
0.035	O=C(/C=C/c1ccc2ccccc2c1)NCCN1CC(=O)N[C@@H](Cc2ccc3ccccc3c2)C(=O)NCCSSCCC(=O)N2CCO[C@@H](C2)C1=O [X-Cop-N-Aeg-2-Nal + Acid 112]
-0.00533	O=C1CN(CCNC(=O)c2ccc(Cl)s2)C(=O)[C@@H]2CN(CCO2)C(=O)CCSSCCNC(=O)[C@H](Cc2c[nH]c3cc(Cl)ccc23)N1 [X-Cop-N-Aeg-Cl-Trp + Acid 14]
0.00455	O=C1CN(CCNC(=O)c2ccc3ccccc3c2)C(=O)[C@@H]2CN(CCO2)C(=O)CCSSCCNC(=O)[C@H](Cc2c[nH]c3cc(Cl)ccc23)N1 [X-Cop-N-Aeg-Cl-Trp + Acid 107]
0.021	O=C1CN(CCNC(=O)C2COc3ccccc3O2)C(=O)[C@@H]2CN(CCO2)C(=O)CCSSCCNC(=O)[C@H](Cc2c[nH]c3cc(Cl)ccc23)N1 (some centres unmarked) [X-Cop-N-Aeg-Cl-Trp + Acid 115]
-0.012	O=C1CN(CCNC(=O)c2ccc(Cl)s2)C(=O)[C@@H]2CN(CCO2)C(=O)CCSSCCNC(=O)[C@@H](Cc2c[nH]c3ccccc23)N1 [X-Cop-N-Aeg-D-Trp + Acid 14]
0.015	O=C(/C=C/c1ccc(Cl)cc1)NCCN1CC(=O)N[C@H](Cc2c[nH]c3ccccc23)C(=O)NCCSSCCC(=O)N2CCO[C@@H](C2)C1=O [X-Cop-N-Aeg-D-Trp + Acid 108]
-0.00533	O=C1CN(CCNC(=O)C2COc3ccccc3O2)C(=O)[C@@H]2CN(CCO2)C(=O)CCSSCCNC(=O)[C@@H](Cc2c[nH]c3ccccc23)N1 (stereo partly drawn) [X-Cop-N-Aeg-D-Trp + Acid 115]
0.028	Cn1cc(C[C@@H]2NC(=O)CN(CCNC(=O)c3ccc(Cl)cc3)C(=O)[C@@H]3CN(CCO3)C(=O)CCSSCCNC2=O)c2ccccc21 [X-Cop-N-Aeg-Me-Trp + Acid 25]
0.00455	Cn1cc(C[C@@H]2NC(=O)CN(CCNC(=O)c3ccc4ccccc4c3)C(=O)[C@@H]3CN(CCO3)C(=O)CCSSCCNC2=O)c2ccccc21 [X-Cop-N-Aeg-Me-Trp + Acid 107]
0.021	Cn1cc(C[C@@H]2NC(=O)CN(CCNC(=O)/C=C/c3ccc(Cl)cc3)C(=O)[C@@H]3CN(CCO3)C(=O)CCSSCCNC2=O)c2ccccc21 [X-Cop-N-Aeg-Me-Trp + Acid 108]

Same assay, conditions: Panel c, Library 4: best nine scaffolds and 15 additional carboxylic acids; displacement of fluorescent probe

fraction of fluorescent probe displaced	SMILES
0.052	CCOc1ccc(C=CC(=O)NCC2NC(=O)C3CN(CCO3)C(=O)CCSSCCNC(=O)C(Cc3cn(C)c4ccccc34)NC2=O)cc1 (stereo not drawn) [X-Cop-Dap-Me-Trp + Acid 117]
0.028	CCCOc1ccc(C=CC(=O)NCC2NC(=O)C3CN(CCO3)C(=O)CCSSCCNC(=O)C(Cc3cn(C)c4ccccc34)NC2=O)cc1 (stereo not drawn) [X-Cop-Dap-Me-Trp + Acid 118]
-0.037	CC(=Cc1ccccc1)C(=O)NCC1NC(=O)C2CN(CCO2)C(=O)CCSSCCNC(=O)C(Cc2cn(C)c3ccccc23)NC1=O (stereo not drawn) [X-Cop-Dap-Me-Trp + Acid 123]
0.199	CCOc1ccc(C=CC(=O)NCC2NC(=O)C3CN(CCO3)C(=O)CCSSCCNC(=O)C(Cc3c[nH]c4ccccc34)NC2=O)cc1 (stereo not drawn) [X-Cop-Dap-Trp + Acid 117]
0.158	CCCOc1ccc(C=CC(=O)NCC2NC(=O)C3CN(CCO3)C(=O)CCSSCCNC(=O)C(Cc3c[nH]c4ccccc34)NC2=O)cc1 (stereo not drawn) [X-Cop-Dap-Trp + Acid 118]
0.118	O=C(C=Cc1cccc(C(F)(F)F)c1)NCC1NC(=O)C2CN(CCO2)C(=O)CCSSCCNC(=O)C(Cc2c[nH]c3ccccc23)NC1=O (stereo not drawn) [X-Cop-Dap-Trp + Acid 122]
